Measured values: patent publication US20110034373A1, “USE OF AN FGF-21 COMPOUND AND A GLP-1 COMPOUND FOR THE TREATMENT OF OBESITY” (ELI LILLY AND COMPANY, priority 2007, published 2011)

B1: FGF-21: FGF-21 compound of Table 1: human FGF-21, printed as 'human FGF-2 (SEQ ID NO: 1)' (protein, listed as Homo sapiens)
chain: MDSDETGFEHSGLWVSVLAGLLGACQAHPIPDSSPLLQFGGQVRQRYLYTDDAQQTEAHLEIREDGTVGGAADQSPESLLQLKALKPGVIQILGVKTSRFLCQRPDGALYGSLHFDPEACSFRELLLEDGYNVYQSEAHGLPLHLPGNKSPHRDPAPRGPARFLPLPGLPPALPEPPGILAPQPPDVGSSDPLSMVGPSQGRSPSYAS

Tested on: Diet-induced obese (DIO) male C57/B16 mice
Experiment: Effect of combination treatment with GLP-1 and FGF-21 on body weight in diet-induced obese mice
Type: in vivo
Settings: GLP-1 compound 3 nmol/kg/day continuous s.c. infusion (alzet pump), n=8
Experimental: Diet-induced obese (DIO) male C57/B16 mice (Harlan: Va.) maintained on a calorie rich diet (TD95217, Teklad, Madison, Wis.) since weaning are used, DIO is established by ad libitum feeding for at least 7 weeks of a diet consisting of 40% fat, 39% carbohydrate, and 21% protein caloric content (TD95217). Animals are individually housed in a temperature-controlled (24° C.) facility with 12 hour light/dark cycle (lights on 2200) and free access to food (TD95217) and water. After a minimum of 2 weeks acclimation to the facility, the mice are randomized according to their body weight, so each experimental group of animals would have similar body weight.
Body composition of DIO male C57/B16 mice is determined by using QNMR analysis 1 day prior to initiation of treatment. Combination treatment is administered with two delivery methods. A FGF-21 compound (1 mg/kg) is subcutaneously injected once a day and a GLP-1 compound (3 nmol/kg/day) is delivered by continuous subcutaneous infusion with alzet pump. The experimental groups are as follow: One group (“Vehicle”) of mice (n=8) receives PBS (11.4 μL/day) and a daily subcutaneous injection of 0.05 mL/10 g of PBS. Another group (“FGF-21”) of mice (n=8) receives 11.4 μL/day of PBS using the alzet pump and a daily subcutaneous injection of 1 mg/kg of FGF-21. The “GLP-1” group of mice receives 3 nmol/kg/day of a GLP-1 compound through an alzet pump and a daily subcutaneous injection of 0.05 mL/10 g of PBS. The “GLP-1+FGF-21” group of mice receives 3 nmol/kg/day of a GLP-1 compound through an alzet pump and a daily subcutaneous injection of 1 mg/kg of a FGF-21 compound. Injections occur prior to the onset of the dark photoperiod. Starting weight values are measured after implantation of alzet pumps on Day 1. Body weights are recorded in conjunction with daily dosing. Average weight changes compared to starting weights of a particular treatment group, including vehicle, are determined. Average daily weight changes are normalized to average of daily weight change of Vehicle group and are reported in Table 1 (i.e., (Average weight change of Treatment group)−(Average weight change of Vehicle group)). For all treatment groups n=8.
Data in Table 1 represent results where the FGF-21 compound is human FGF-2 (SEQ ID NO: 1) and where the GLP-1 compound is Val^8-Glu^22-Ile^33-Pro^37-Ser^38-Ser^39-Gly^40-Ala^41-Pro^42-Pro^43-Pro^44-Ser^45-GLP-1 (SEQ ID NO: 19).

[1] = Day 1 (starting weight), FGF-21 compound 1 mg/kg s.c. once a day
[2] = Day 5, FGF-21 compound 1 mg/kg s.c. once a day
[3] = Day 10, FGF-21 compound 1 mg/kg s.c. once a day
[4] = Day 15, FGF-21 compound 1 mg/kg s.c. once a day

Molecule | Average Weight Change Normalized to Vehicle Treated Mice [1] [g] | Average Weight Change Normalized to Vehicle Treated Mice [2] [g] | Average Weight Change Normalized to Vehicle Treated Mice [3] [g] | Average Weight Change Normalized to Vehicle Treated Mice [4] [g]
Val^8-Glu^22-Ile^33-Pro^37-Ser^38-Ser^39-Gly^40-Ala^41-Pro^42-Pro^43-Pro^44-Ser^45-GLP-1 (HVEGTFTSDVSSYLEEQAAKEFIAWLIKGGPSSGAPPPS) | 0 | -1.01 | -1.99 | -2.50
B1 | 0 | -0.45 | -1.94 | -2.85
